How the values were obtained:
Assay type in all cases: in vivo, human
[1] = tested on: adult subjects with schizophrenia; experiment: PANSS negative symptom subscale score, Clinical Study Three; details: bifeprunox 30 mg; LOCF; ITT
Source text: SECONDARY OBJECTIVES To assess the efficacy of bifeprunox in treating schizophrenia using the Positive Symptom sub-scale score of the PANSS, the Negative Symptom sub-scale score of the PANSS, the General Psychopathology sub-scale of the PANSS, Brief Psychiatric Rating Scale (BPRS) total score derived from the PANSS, BPRS psychosis score derived from the PANSS, the Clinical Global Impression Severity of Illness score (CGI-S), the Clinical Global Impression Improvement score (CGI-I), CGI-I responder rate, PANSS responder rate based on the PANSS total score, Calgary Depression Scale for Schizophrenia (CDSS), and Subject Satisfaction rating.
There were four treatment arms in this study, approximately 144 subjects per arm. […] After completing the Single-Blind Placebo Lead-in Period of at least three days, bifeprunox-treated subjects were titrated from 0.25 mg up to 20 mg/day or 30 mg/day according to a standardized titration scheme over a seven- or eight-day period, respectively. When the assigned dose was reached, subjects were maintained at that dose for the remainder of the six week treatment period. […] Subjects were hospitalized (if not already inpatients) after eligibility for study entry was verified, starting from the Screening Visit until at least 10 days after Baseline. Subjects could be hospitalized longer than 10 days if considered medically necessary by the Investigator. Rating scale assessments for efficacy and abnormal movement disorders were done weekly except for Week 5. […] Subject satisfaction with study medication was assessed at Week 6.

[2] = tested on: adult subjects with schizophrenia; experiment: CGI Improvement score, Clinical Study Three; parameters: CGI Improvement Very Much Worse, %: dose or concentration left out as unconfirmed; details: LOCF
Method: CLINICAL STUDY THREE: Table 29 below presents frequencies for the seven categories of CGI Improvement ratings by visit using LOCF for the ITT population. Statistical differences among treatment groups regarding the mean CGI Improvement score were evaluated using a CMH test stratified by pooled center applied to the frequencies of the seven CGI Improvement categories with modified ridit scores. […] The treatment comparison of the 30 mg bifeprunox group versus placebo group was not notable (p=0.162). No notable differences were observed between the placebo group and either of the two bifeprunox dose groups at any other time point during the study (Week 1 through Week 4).

[3] = tested on: adult subjects with schizophrenia; experiment: CGI Improvement score, Clinical Study One; parameters: Actual Value of CGI Improvement Score, Median / CGI Improvement Score, Trt Effect: scale not given here
Method: There were five treatment groups in this study. […] Study medication was administered once daily. After Baseline measurements were performed, the titration phase was begun. Bifeprunox treated subjects were titrated up to 5 mg, 10 mg or 20 mg according to a standardized titration schedule (Day 1: 0.125 mg, Day 2: 0.25 mg, Day 3: 0.5 mg, Day 4: 1.0 mg, Day 5: 2.0 mg, Day 6: 5.0 mg, Day 7: 10.0 mg, Day 8: 20 mg). When the assigned dose was reached, subjects were maintained at that dose for the remainder of the six-week treatment period.
The change in the Positive and Negative Symptom Scale (PANSS) total score, from baseline to endpoint, was the primary outcome measure. Secondary efficacy measures included: PANSS positive, PANSS negative, PANSS general psychopathology (GPP) score, PANSS-derived Brief Psychiatric Rating Scale (BPRS) score, Clinical Global Impressions-Severity of Illness (CGI-S), CGI-Improvement (CGI-I) scores, and responder rates. Safety and tolerability evaluations included extrapyramidal symptoms (EPS), weight gain, lipid profile, and serum prolactin.

O=c1[nH]c2cccc(N3CCN(Cc4cccc(-c5ccccc5)c4)CC3)c2o1 [Bifeprunox, 7-[4-([1,1′-biphenyl]-3-ylmethyl)-1-piperazinyl]-2(3H)-benzoxazolone]
mean change (SD) from Baseline to Endpoint in PANSS Negative Symptom subscale score [1]: −3.1 (5.2)
CGI Improvement Minimally Improved, % ([2]; 30 mg, Week 2): (45%)
CGI Improvement Minimally Worse, % ([2]; 30 mg, Week 2): (9%)
CGI Improvement Much Improved, % ([2]; 30 mg, Week 2): (21%)
CGI Improvement Much Worse, % ([2]; 30 mg, Week 2): (4%)
CGI Improvement No Change, % ([2]; 30 mg, Week 2): (19%)
CGI Improvement Very Much Improved, % ([2]; 30 mg, Week 2): (2%)
CGI Improvement Minimally Improved, % ([2]; 30 mg, Week 4): (30%)
CGI Improvement Minimally Worse, % ([2]; 30 mg, Week 4): (11%)
CGI Improvement Much Improved, % ([2]; 30 mg, Week 4): (32%)
CGI Improvement Much Worse, % ([2]; 30 mg, Week 4): (6%)
CGI Improvement No Change, % ([2]; 30 mg, Week 4): (17%)
CGI Improvement Very Much Improved, % ([2]; 30 mg, Week 4): (5%)
CGI Improvement Minimally Improved, % ([2]; 30 mg, Week 6/Endpoint): (28%)
CGI Improvement Minimally Worse, % ([2]; 30 mg, Week 6/Endpoint): (13%)
CGI Improvement Much Improved, % ([2]; 30 mg, Week 6/Endpoint): (33%)
CGI Improvement Much Worse, % ([2]; 30 mg, Week 6/Endpoint): (7%)
CGI Improvement No Change, % ([2]; 30 mg, Week 6/Endpoint): (15%)
CGI Improvement Very Much Improved, % ([2]; 30 mg, Week 6/Endpoint): (5%)
CGI Improvement Minimally Improved, % ([2]; 40 mg, Week 2): (37%)
CGI Improvement Minimally Worse, % ([2]; 40 mg, Week 2): (7%)
CGI Improvement Very Much Improved, % ([2]; 40 mg, Week 2): (<1%.)
CGI Improvement Minimally Improved, % ([2]; 40 mg, Week 4): (29%)
CGI Improvement Minimally Worse, % ([2]; 40 mg, Week 4): (8%)
CGI Improvement Very Much Improved, % ([2]; 40 mg, Week 4): (3%)
CGI Improvement Minimally Improved, % ([2]; 40 mg, Week 6/Endpoint): (30%)
CGI Improvement Minimally Worse, % ([2]; 40 mg, Week 6/Endpoint): (8%)
CGI Improvement Very Much Improved, % ([2]; 40 mg, Week 6/Endpoint): (7%)
CGI Improvement Much Improved, % ([2]; Week 2): (19%)
CGI Improvement Much Worse, % ([2]; Week 2): (10%)
CGI Improvement No Change, % ([2]; Week 2): (22%)
CGI Improvement Very Much Worse, % ([2]; Week 2): (<1%)
CGI Improvement Much Improved, % ([2]; Week 4): (30%)
CGI Improvement Much Worse, % ([2]; Week 4): (11%)
CGI Improvement No Change, % ([2]; Week 4): (17%)
CGI Improvement Very Much Worse, % ([2]; Week 4): (1%)
CGI Improvement Much Improved, % ([2]; Week 6/Endpoint): (27%)
CGI Improvement Much Worse, % ([2]; Week 6/Endpoint): (11%)
CGI Improvement No Change, % ([2]; Week 6/Endpoint): (16%)
CGI Improvement Very Much Worse, % ([2]; Week 6/Endpoint): (1%)
CGI Improvement Score, Trt Effect ([3]; 5 mg versus placebo, Endpoint LOCF): −0.28
Actual Value of CGI Improvement Score, Mean (S.D.) ([3]; 5 mg, Endpoint LOCF): 3.33 (1.37)
Actual Value of CGI Improvement Score, Median ([3]; 5 mg, Endpoint LOCF): 3.0
Actual Value of CGI Improvement Score, Mean (S.D.) ([3]; 5 mg, Week 1, LOCF): 3.76 (0.85)
Actual Value of CGI Improvement Score, Median ([3]; 5 mg, Week 1, LOCF): 4.0
Actual Value of CGI Improvement Score, Mean (S.D.) ([3]; 5 mg, Week 2, LOCF): 3.46 (1.10)
Actual Value of CGI Improvement Score, Median ([3]; 5 mg, Week 2, LOCF): 3.0
Actual Value of CGI Improvement Score, Mean (S.D.) ([3]; 5 mg, Week 3, LOCF): 3.2 (1.27)
Actual Value of CGI Improvement Score, Median ([3]; 5 mg, Week 3, LOCF): 3.0
Actual Value of CGI Improvement Score, Mean (S.D.) ([3]; 5 mg, Week 4, LOCF): 3.37 (1.35)
Actual Value of CGI Improvement Score, Median ([3]; 5 mg, Week 4, LOCF): 3.0
CGI Improvement Score, Trt Effect ([3]; 10 mg versus placebo, Endpoint LOCF): 0.28
Actual Value of CGI Improvement Score, Mean (S.D.) ([3]; 10 mg, Endpoint LOCF): 3.90 (1.39)
Actual Value of CGI Improvement Score, Median ([3]; 10 mg, Endpoint LOCF): 4.0
Actual Value of CGI Improvement Score, Mean (S.D.) ([3]; 10 mg, Week 1, LOCF): 3.88 (1.00)
Actual Value of CGI Improvement Score, Median ([3]; 10 mg, Week 1, LOCF): 4.0
Actual Value of CGI Improvement Score, Mean (S.D.) ([3]; 10 mg, Week 2, LOCF): 3.71 (1.23)
Actual Value of CGI Improvement Score, Median ([3]; 10 mg, Week 2, LOCF): 4.0
Actual Value of CGI Improvement Score, Mean (S.D.) ([3]; 10 mg, Week 3, LOCF): 3.79 (1.32)
Actual Value of CGI Improvement Score, Median ([3]; 10 mg, Week 3, LOCF): 4.0
Actual Value of CGI Improvement Score, Mean (S.D.) ([3]; 10 mg, Week 4, LOCF): 3.86 (1.35)
Actual Value of CGI Improvement Score, Median ([3]; 10 mg, Week 4, LOCF): 4.0
CGI Improvement Score, Trt Effect ([3]; 20 mg versus placebo, Endpoint LOCF): −0.21
Actual Value of CGI Improvement Score, Mean (S.D.) ([3]; 20 mg, Endpoint LOCF): 342 (1.30)
Actual Value of CGI Improvement Score, Median ([3]; 20 mg, Endpoint LOCF): 3.0
Actual Value of CGI Improvement Score, Mean (S.D.) ([3]; 20 mg, Week 1, LOCF): 3.54 (0.99)
Actual Value of CGI Improvement Score, Median ([3]; 20 mg, Week 1, LOCF): 4.0
Actual Value of CGI Improvement Score, Mean (S.D.) ([3]; 20 mg, Week 2, LOCF): 3.30 (114)
Actual Value of CGI Improvement Score, Median ([3]; 20 mg, Week 2, LOCF): 3.0
Actual Value of CGI Improvement Score, Mean (S.D.) ([3]; 20 mg, Week 3, LOCF): 3.31 (1.19)
Actual Value of CGI Improvement Score, Median ([3]; 20 mg, Week 3, LOCF): 3.0
Actual Value of CGI Improvement Score, Mean (S.D.) ([3]; 20 mg, Week 4, LOCF): 3.35 (1.29)
Actual Value of CGI Improvement Score, Median ([3]; 20 mg, Week 4, LOCF): 3.0

Reference: patent US20090068290A1, “BIFEPRUNOX DOSES FOR TREATING SCHIZOPHRENIA” (priority 2006, published 2009)
